{"source": "patent US9446039B2", "about": "“Aminoheteroaryl compounds as MTH1 inhibitors” (CEMM—FORSCHUNGSZENTRUM FÜR MOLEKULARE MEDIZIN GMBH, priority 2012, dated 2016)", "format_in_all_cases": "binding", "key": {"[1]": {"target": "SW480 colon carcinoma cells lysate proteins (Homo sapiens, UniProt Q9UBR2)", "sequence (Q9UBR2 62-303)": "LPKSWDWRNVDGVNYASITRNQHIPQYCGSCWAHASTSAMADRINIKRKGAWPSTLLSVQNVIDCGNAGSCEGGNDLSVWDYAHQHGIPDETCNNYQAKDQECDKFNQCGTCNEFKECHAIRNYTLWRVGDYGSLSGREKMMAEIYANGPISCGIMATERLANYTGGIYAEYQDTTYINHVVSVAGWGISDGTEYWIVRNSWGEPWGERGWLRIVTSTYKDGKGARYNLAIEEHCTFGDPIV", "conditions": "PreyGene CTSZ"}, "[2]": {"target": "SW480 colon carcinoma cells lysate proteins (Homo sapiens, UniProt P27708)", "conditions": "PreyGene CAD"}, "[3]": {"target": "SW480 colon carcinoma cells lysate proteins (Homo sapiens, UniProt P62136)", "sequence (P62136 whole entry)": "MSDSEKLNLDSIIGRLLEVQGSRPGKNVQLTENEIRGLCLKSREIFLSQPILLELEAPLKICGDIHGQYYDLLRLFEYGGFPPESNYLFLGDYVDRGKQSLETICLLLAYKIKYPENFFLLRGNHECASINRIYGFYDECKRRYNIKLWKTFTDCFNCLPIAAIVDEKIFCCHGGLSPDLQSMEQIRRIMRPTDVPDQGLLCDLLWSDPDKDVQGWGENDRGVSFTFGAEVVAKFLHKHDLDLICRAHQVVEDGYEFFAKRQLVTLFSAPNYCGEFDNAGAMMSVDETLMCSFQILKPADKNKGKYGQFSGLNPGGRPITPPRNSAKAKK", "conditions": "PreyGene PPP1CA"}, "[4]": {"target": "SW480 colon carcinoma cells lysate proteins (Homo sapiens, UniProt Q02878)", "conditions": "PreyGene RPL6; SW480 cells"}, "[5]": {"target": "SW480 colon carcinoma cells lysate proteins (Homo sapiens, UniProt P49591)", "sequence (P49591 whole entry, looked up)": "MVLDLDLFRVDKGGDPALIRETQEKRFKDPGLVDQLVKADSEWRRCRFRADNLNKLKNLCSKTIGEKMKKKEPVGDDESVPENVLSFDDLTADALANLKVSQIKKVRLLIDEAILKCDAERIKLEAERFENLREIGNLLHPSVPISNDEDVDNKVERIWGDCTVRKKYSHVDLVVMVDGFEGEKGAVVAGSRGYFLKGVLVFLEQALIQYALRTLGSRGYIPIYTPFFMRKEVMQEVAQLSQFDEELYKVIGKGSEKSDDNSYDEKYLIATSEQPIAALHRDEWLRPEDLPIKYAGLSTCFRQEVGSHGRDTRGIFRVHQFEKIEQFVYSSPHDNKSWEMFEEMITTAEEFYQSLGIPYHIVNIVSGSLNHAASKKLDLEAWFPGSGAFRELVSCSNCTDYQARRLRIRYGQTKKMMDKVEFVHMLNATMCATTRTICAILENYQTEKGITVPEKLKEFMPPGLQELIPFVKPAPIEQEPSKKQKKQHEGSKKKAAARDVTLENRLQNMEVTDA", "conditions": "PreyGene SARS"}, "[6]": {"target": "SW480 colon carcinoma cells lysate proteins (Homo sapiens, UniProt Q9Y490)", "sequence (Q9Y490 whole entry)": "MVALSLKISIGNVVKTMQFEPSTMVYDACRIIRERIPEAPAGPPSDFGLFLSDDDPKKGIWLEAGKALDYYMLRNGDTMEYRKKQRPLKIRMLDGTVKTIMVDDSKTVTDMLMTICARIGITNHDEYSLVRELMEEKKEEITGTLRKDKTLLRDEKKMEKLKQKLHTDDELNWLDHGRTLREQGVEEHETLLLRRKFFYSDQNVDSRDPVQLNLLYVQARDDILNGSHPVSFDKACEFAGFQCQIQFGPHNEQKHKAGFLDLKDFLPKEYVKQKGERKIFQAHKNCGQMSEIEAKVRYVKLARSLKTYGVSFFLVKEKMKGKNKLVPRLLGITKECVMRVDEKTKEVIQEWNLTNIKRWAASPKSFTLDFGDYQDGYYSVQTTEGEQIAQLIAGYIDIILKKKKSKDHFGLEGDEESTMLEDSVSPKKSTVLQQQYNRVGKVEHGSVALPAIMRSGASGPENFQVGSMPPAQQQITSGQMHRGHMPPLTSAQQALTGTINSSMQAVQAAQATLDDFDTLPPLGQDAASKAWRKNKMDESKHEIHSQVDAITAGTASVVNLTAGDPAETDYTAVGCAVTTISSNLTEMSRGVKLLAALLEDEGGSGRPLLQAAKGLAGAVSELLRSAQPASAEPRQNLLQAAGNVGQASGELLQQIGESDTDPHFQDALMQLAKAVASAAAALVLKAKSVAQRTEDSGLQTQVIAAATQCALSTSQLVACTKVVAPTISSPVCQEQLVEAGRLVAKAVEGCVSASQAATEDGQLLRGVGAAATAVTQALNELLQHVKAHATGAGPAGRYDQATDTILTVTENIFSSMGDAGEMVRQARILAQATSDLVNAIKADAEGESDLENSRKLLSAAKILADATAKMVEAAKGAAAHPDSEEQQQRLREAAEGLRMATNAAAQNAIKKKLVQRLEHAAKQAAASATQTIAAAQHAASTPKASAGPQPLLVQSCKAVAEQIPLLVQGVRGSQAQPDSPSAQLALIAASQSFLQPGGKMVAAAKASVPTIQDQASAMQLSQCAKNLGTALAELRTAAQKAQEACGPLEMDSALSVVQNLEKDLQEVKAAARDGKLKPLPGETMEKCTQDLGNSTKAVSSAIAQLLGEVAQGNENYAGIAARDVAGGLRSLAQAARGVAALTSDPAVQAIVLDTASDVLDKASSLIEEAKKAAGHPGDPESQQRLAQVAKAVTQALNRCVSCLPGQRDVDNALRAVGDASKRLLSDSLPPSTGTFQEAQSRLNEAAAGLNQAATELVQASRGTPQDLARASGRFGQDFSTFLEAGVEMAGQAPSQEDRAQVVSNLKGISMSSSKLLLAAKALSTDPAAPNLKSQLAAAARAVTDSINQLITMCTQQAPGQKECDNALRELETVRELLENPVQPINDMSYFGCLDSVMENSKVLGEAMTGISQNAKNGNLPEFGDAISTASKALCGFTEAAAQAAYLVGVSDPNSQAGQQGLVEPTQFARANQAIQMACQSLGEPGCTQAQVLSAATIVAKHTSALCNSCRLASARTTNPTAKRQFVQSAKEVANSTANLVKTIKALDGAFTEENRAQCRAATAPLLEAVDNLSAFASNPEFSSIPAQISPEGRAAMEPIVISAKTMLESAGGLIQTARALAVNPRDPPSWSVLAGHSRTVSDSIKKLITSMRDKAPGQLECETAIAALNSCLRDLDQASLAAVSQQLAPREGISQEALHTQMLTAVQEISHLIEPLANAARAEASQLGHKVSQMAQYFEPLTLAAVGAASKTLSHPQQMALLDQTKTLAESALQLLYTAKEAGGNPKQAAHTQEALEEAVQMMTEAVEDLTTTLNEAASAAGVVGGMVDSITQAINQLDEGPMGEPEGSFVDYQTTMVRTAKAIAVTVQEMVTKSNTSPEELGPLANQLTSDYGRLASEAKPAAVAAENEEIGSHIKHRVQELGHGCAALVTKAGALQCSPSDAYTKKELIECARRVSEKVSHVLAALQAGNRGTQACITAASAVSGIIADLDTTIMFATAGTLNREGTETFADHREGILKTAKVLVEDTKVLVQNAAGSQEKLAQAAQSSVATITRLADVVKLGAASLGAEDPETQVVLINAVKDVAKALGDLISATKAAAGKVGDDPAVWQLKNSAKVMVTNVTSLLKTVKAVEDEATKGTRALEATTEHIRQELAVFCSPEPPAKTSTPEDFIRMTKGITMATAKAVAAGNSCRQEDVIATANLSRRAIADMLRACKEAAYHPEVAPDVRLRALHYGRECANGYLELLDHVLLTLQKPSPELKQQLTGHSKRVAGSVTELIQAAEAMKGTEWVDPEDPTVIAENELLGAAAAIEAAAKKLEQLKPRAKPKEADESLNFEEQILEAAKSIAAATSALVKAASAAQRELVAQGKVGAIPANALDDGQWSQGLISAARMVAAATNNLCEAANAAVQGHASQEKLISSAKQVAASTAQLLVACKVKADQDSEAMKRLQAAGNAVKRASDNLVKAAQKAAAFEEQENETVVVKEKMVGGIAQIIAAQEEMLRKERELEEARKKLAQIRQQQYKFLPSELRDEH", "conditions": "PreyGene TLN1"}, "[7]": {"target": "SW480 colon carcinoma cells lysate proteins (Homo sapiens, UniProt P17980)", "conditions": "PreyGene PSMC3"}, "[8]": {"target": "SW480 colon carcinoma cells lysate proteins (Homo sapiens, UniProt P30086)", "sequence (P30086 whole entry)": "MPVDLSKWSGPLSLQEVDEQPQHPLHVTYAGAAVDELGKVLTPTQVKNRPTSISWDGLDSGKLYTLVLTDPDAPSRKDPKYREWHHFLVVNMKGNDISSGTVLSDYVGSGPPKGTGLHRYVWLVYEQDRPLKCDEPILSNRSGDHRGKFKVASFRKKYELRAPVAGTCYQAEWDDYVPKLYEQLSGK", "conditions": "PreyGene PEBP1"}, "[9]": {"target": "T1, SW480 colon carcinoma cells lysate proteins (Homo sapiens, UniProt P52209)", "T1 sequence (P52209 1-483)": "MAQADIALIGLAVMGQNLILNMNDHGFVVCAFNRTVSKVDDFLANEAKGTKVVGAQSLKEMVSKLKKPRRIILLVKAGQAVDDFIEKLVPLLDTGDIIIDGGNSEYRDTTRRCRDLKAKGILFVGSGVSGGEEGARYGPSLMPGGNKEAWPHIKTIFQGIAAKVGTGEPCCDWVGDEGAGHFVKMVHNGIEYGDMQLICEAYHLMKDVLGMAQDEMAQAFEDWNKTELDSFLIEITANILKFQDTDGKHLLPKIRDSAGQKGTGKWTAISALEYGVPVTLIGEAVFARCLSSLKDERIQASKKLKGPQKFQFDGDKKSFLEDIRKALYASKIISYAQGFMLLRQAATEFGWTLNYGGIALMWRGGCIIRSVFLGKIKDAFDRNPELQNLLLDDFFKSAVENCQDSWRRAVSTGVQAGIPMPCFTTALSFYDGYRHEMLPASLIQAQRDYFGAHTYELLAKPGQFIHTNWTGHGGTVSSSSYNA", "conditions": "PreyGene PGD"}, "[10]": {"target": "SW480 colon carcinoma cells lysate proteins (Homo sapiens, UniProt P10412)", "sequence (P10412 whole entry)": "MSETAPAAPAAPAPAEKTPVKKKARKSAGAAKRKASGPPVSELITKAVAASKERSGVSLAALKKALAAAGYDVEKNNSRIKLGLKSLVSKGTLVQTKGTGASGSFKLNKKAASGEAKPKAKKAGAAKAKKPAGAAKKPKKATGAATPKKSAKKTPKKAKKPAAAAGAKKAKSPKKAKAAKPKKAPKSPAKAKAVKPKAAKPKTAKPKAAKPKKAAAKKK", "conditions": "PreyGene HIST1H1E"}, "[11]": {"target": "SW480 colon carcinoma cells lysate proteins (Homo sapiens, UniProt Q99623)", "sequence (Q99623 whole entry)": "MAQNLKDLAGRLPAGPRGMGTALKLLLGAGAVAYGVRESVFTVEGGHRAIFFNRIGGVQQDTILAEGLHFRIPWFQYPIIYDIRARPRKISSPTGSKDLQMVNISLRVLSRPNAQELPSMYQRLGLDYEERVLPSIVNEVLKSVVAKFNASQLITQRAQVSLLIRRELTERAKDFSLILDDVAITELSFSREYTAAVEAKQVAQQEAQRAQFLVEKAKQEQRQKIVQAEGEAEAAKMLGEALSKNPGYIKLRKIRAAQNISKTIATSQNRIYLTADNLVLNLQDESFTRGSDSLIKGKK", "conditions": "PreyGene PHB2; SW480 cells"}, "[12]": {"target": "SW480 colon carcinoma cells lysate proteins (Homo sapiens, UniProt P18669)", "sequence (P18669 whole entry)": "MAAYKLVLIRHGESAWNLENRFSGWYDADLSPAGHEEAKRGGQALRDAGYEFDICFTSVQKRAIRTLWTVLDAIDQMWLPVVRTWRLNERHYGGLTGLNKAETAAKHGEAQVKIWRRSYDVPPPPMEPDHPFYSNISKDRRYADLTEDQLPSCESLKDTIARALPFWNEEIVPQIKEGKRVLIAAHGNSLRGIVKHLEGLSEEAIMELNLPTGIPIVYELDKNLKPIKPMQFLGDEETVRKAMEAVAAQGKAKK", "conditions": "PreyGene PGAM1"}, "[13]": {"target": "SW480 colon carcinoma cells lysate proteins (Homo sapiens, UniProt P55263)", "sequence (P55263 whole entry)": "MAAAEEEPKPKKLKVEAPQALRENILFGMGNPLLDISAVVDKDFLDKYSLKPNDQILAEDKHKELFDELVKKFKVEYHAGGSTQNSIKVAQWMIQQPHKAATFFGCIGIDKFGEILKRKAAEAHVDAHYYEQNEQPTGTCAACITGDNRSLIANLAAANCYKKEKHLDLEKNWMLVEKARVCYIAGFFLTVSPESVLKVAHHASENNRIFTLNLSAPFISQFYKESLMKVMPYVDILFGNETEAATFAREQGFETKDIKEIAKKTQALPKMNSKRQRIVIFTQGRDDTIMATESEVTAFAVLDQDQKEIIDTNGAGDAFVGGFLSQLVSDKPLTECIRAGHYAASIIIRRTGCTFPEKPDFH", "conditions": "PreyGene ADK"}, "[14]": {"target": "SW480 colon carcinoma cells lysate proteins (Homo sapiens, UniProt Q92616)", "conditions": "PreyGene GCN1L1; SW480 cells"}}, "data": [{"smiles": "C[C@H](Oc1cc(-c2cnn(C3CCNCC3)c2)cnc1N)c1c(Cl)ccc(F)c1Cl", "note": "[(5)-crizotinib]", "values": [{"measurement": "AvgP", "setting": "[1]", "value": 0.3217}, {"measurement": "SC.Exp. 1-1", "setting": "[1]", "value": 2}, {"measurement": "SC.Exp. 1-2", "setting": "[1]", "value": 2}, {"measurement": "SC.Exp. 2-1", "setting": "[1]", "value": 0}, {"measurement": "SC.Exp. 2-2", "setting": "[1]", "value": 0}, {"measurement": "Sum (SC.Exp.)", "setting": "[1]", "value": 4}, {"measurement": "AvgP", "setting": "[2]", "value": 0.3483}, {"measurement": "SC.Exp. 1-1", "setting": "[2]", "value": 2}, {"measurement": "SC.Exp. 1-2", "setting": "[2]", "value": 3}, {"measurement": "SC.Exp. 2-1", "setting": "[2]", "value": 0}, {"measurement": "SC.Exp. 2-2", "setting": "[2]", "value": 0}, {"measurement": "Sum (SC.Exp.)", "setting": "[2]", "value": 5}, {"measurement": "AvgP", "setting": "[3]", "value": 0.3721}, {"measurement": "SC.Exp. 1-1", "setting": "[3]", "value": 2}, {"measurement": "SC.Exp. 1-2", "setting": "[3]", "value": 2}, {"measurement": "SC.Exp. 2-1", "setting": "[3]", "value": 0}, {"measurement": "SC.Exp. 2-2", "setting": "[3]", "value": 0}, {"measurement": "Sum (SC.Exp.)", "setting": "[3]", "value": 4}, {"measurement": "AvgP", "setting": "[4]", "value": 0}, {"measurement": "SC.Exp. 1-1", "setting": "[4]", "value": 7}, {"measurement": "SC.Exp. 1-2", "setting": "[4]", "value": 11}, {"measurement": "SC.Exp. 2-1", "setting": "[4]", "value": 4}, {"measurement": "SC.Exp. 2-2", "setting": "[4]", "value": 6}, {"measurement": "SC.Exp. Sum", "setting": "[4]", "value": 28}, {"measurement": "AvgP", "setting": "[5]", "value": 0.4649}, {"measurement": "SC.Exp. 1-1", "setting": "[5]", "value": 4}, {"measurement": "SC.Exp. 1-2", "setting": "[5]", "value": 4}, {"measurement": "SC.Exp. 2-1", "setting": "[5]", "value": 0}, {"measurement": "SC.Exp. 2-2", "setting": "[5]", "value": 0}, {"measurement": "Sum (SC.Exp.)", "setting": "[5]", "value": 8}, {"measurement": "AvgP", "setting": "[6]", "value": 0.4939}, {"measurement": "SC.Exp. 1-1", "setting": "[6]", "value": 7}, {"measurement": "SC.Exp. 1-2", "setting": "[6]", "value": 7}, {"measurement": "SC.Exp. 2-1", "setting": "[6]", "value": 0}, {"measurement": "SC.Exp. 2-2", "setting": "[6]", "value": 0}, {"measurement": "Sum (SC.Exp.)", "setting": "[6]", "value": 14}, {"measurement": "AvgP", "setting": "[7]", "value": 0.4297}, {"measurement": "SC.Exp. 1-1", "setting": "[7]", "value": 3}, {"measurement": "SC.Exp. 1-2", "setting": "[7]", "value": 3}, {"measurement": "SC.Exp. 2-1", "setting": "[7]", "value": 0}, {"measurement": "SC.Exp. 2-2", "setting": "[7]", "value": 0}, {"measurement": "Sum (SC.Exp.)", "setting": "[7]", "value": 6}, {"measurement": "AvgP", "setting": "[8]", "value": 0.3266}, {"measurement": "SC.Exp. 1-1", "setting": "[8]", "value": 3}, {"measurement": "SC.Exp. 1-2", "setting": "[8]", "value": 3}, {"measurement": "SC.Exp. 2-1", "setting": "[8]", "value": 0}, {"measurement": "SC.Exp. 2-2", "setting": "[8]", "value": 0}, {"measurement": "Sum (SC.Exp.)", "setting": "[8]", "value": 6}, {"measurement": "AvgP", "setting": "[9]", "value": 0.3262}, {"measurement": "SC.Exp. 1-1", "setting": "[9]", "value": 4}, {"measurement": "SC.Exp. 1-2", "setting": "[9]", "value": 2}, {"measurement": "SC.Exp. 2-1", "setting": "[9]", "value": 0}, {"measurement": "SC.Exp. 2-2", "setting": "[9]", "value": 0}, {"measurement": "Sum (SC.Exp.)", "setting": "[9]", "value": 6}, {"measurement": "AvgP", "setting": "[10]", "value": 0.2298}, {"measurement": "SC.Exp. 1-1", "setting": "[10]", "value": 0}, {"measurement": "SC.Exp. 1-2", "setting": "[10]", "value": 2}, {"measurement": "SC.Exp. 2-1", "setting": "[10]", "value": 0}, {"measurement": "SC.Exp. 2-2", "setting": "[10]", "value": 2}, {"measurement": "Sum (SC.Exp.)", "setting": "[10]", "value": 4}, {"measurement": "AvgP", "setting": "[11]", "value": 0}, {"measurement": "SC.Exp. 1-1", "setting": "[11]", "value": 9}, {"measurement": "SC.Exp. 1-2", "setting": "[11]", "value": 8}, {"measurement": "SC.Exp. 2-1", "setting": "[11]", "value": 3}, {"measurement": "SC.Exp. 2-2", "setting": "[11]", "value": 5}, {"measurement": "SC.Exp. Sum", "setting": "[11]", "value": 25}, {"measurement": "AvgP", "setting": "[12]", "value": 0.4721}, {"measurement": "SC.Exp. 1-1", "setting": "[12]", "value": 6}, {"measurement": "SC.Exp. 1-2", "setting": "[12]", "value": 6}, {"measurement": "SC.Exp. 2-1", "setting": "[12]", "value": 0}, {"measurement": "SC.Exp. 2-2", "setting": "[12]", "value": 0}, {"measurement": "Sum (SC.Exp.)", "setting": "[12]", "value": 12}, {"measurement": "AvgP", "setting": "[13]", "value": 0.4613}, {"measurement": "SC.Exp. 1-1", "setting": "[13]", "value": 4}, {"measurement": "SC.Exp. 1-2", "setting": "[13]", "value": 3}, {"measurement": "SC.Exp. 2-1", "setting": "[13]", "value": 0}, {"measurement": "SC.Exp. 2-2", "setting": "[13]", "value": 0}, {"measurement": "Sum (SC.Exp.)", "setting": "[13]", "value": 7}, {"measurement": "AvgP", "setting": "[14]", "value": 0}, {"measurement": "SC.Exp. 1-1", "setting": "[14]", "value": 37}, {"measurement": "SC.Exp. 1-2", "setting": "[14]", "value": 34}, {"measurement": "SC.Exp. 2-1", "setting": "[14]", "value": 37}, {"measurement": "SC.Exp. 2-2", "setting": "[14]", "value": 37}, {"measurement": "SC.Exp. Sum", "setting": "[14]", "value": 145}]}]}
